Marks after values point to notes of the source that are not given here.
Key:
Saccharomyces cerevisiae = assay: MIC, liquid culture dilution; assay type: cell-based
LACTIC ACID PRODUCERS = assay: MIC, liquid culture dilution; assay type: cell-based
Streptococcus agalactiae = assay: MIC, liquid culture dilution; assay type: cell-based
Clostridium perfringens [1] = assay type: cell-based
Staphylococcus aureus = assay: MIC, liquid culture dilution; assay type: cell-based
Salmonella enterica = assay: MIC, liquid culture dilution (single chelates and cross-dilution combinations); assay type: cell-based, Salmonella enterica subp. Enterica serovar enteritidis
Escherichia coli = assay: as above; assay type: cell-based
[2] = test system: Brachyspira hyodysenteriae; assay: MIC (single chelates and combinations)
Micrococcus luteus = assay: MIC, liquid culture dilution; assay type: cell-based
Arcanobacterium piogenes = assay: MIC; assay type: cell-based
Lawsonia intracellularis = test system: Lawsonia intracellularis
Protocol: Experimental feeding was performed with growing pigs, under pilot environmental conditions with the animal paired methods on a stock infected with the pathogen Lawsonia intracellularis. The control group received the usual antibiotic supplement mixed into the feed.

Clostridium perfringens [3] = test system: Clostridium perfringens
E. coli = test system: E. coli
Source text: The experimental animals had E. coli infection. The control group received the standard antibiotic supplement in the feed to control the E. coli infection.

Clostridium perfringens [4] = conditions: treatment group III
[5] = 1 kg/t in feed, 101 days of fattening
[6] = vs antibiotic-supplemented control

Molecule	Minimal inhibitory concentration (MIC) (Saccharomyces cerevisiae) [ppm]	Minimal inhibitory concentration (MIC) (LACTIC ACID PRODUCERS) [ppm]	Minimal inhibitory concentration (MIC) (Streptococcus agalactiae) [ppm]	Minimal inhibitory concentration (MIC) (Clostridium perfringens [1]) [ppm]	Minimal inhibitory concentration (MIC) (Staphylococcus aureus) [ppm]	Minimal inhibitory concentration (MIC) (Salmonella enterica) [ppm]	Minimal inhibitory concentration (MIC) (Escherichia coli) [ppm]	Minimal inhibitory concentration (MIC) [2] [ppm]	Minimal inhibitory concentration (MIC) (Micrococcus luteus) [ppm]	Minimal inhibitory concentration (MIC) (Arcanobacterium piogenes) [ppm]	other results
Zn(Glycine)2 [Zinc (H2O) bis-glycinate]	500	800	29	180	4	220	120	>4000	60		
[NH2][Zn]([NH2])([O]C(=O)C(O)CC(=O)O)[O]C(=O)C(O)CC(=O)O (stereo not drawn) [Zn diammine bis-malate, Zn diammonium malate]	500	500	20	340	80	120	80	2315		21	
NCC(=O)[O-].[Ag+] [Ag glycinate]										184	
NCC(=O)[O][Cu]([NH3+])([NH3+])[O]C(=O)CN [copper diammonium bis-glycinate]											Added weight (Lawsonia intracellularis; [5]): 76.15 kg; Average slaughter weight (Lawsonia intracellularis; [5]): 107.01 kg; Feed utilization (Lawsonia intracellularis; [5]): 3.10 kg/kg; Added weight higher than control (Lawsonia intracellularis; [6]): 6.2%; Feed utilization better than control (Lawsonia intracellularis; [6]): 6.8%; Slaughter weight higher than control (Lawsonia intracellularis; [6]): 1.6%; Relative feed utilization (Clostridium perfringens [3]; 1.0 kg/t in feed, 42 days): 1.89 kg/kg; Total feed use (Clostridium perfringens [3]; 1.0 kg/t in feed, 42 days): 59 880 kg; Total living weight (Clostridium perfringens [3]; 1.0 kg/t in feed, 42 days): 32 395 kg; Total weight gain (Clostridium perfringens [3]; 1.0 kg/t in feed, 42 days): 31 681 kg; Chicken shipped (Clostridium perfringens [3]; 1.0 kg/t in feed, 42 days, 17 100 chicks at start): 16 238; Mean slaughter weight (Clostridium perfringens [3]; 1.0 kg/t in feed, 42 days, difference significant at P ≤ 0.001): 1995*** g; Faeces, signs of diarrhea (Clostridium perfringens [3]; experimental group, observation): no signs of a change indicating diarrhea was visible; Adverse side effects (Clostridium perfringens [3]; feeding the experimental composition, 1.0 kg/t): No adverse side effects were observed; Chicken shipped, difference to control group (Clostridium perfringens [3]; vs unsupplemented control): 4; Relative feed utilization, difference to control group (less feed per unit live weight gain) (Clostridium perfringens [3]; vs unsupplemented control): 3.6%; Total feed use, difference to control group (Clostridium perfringens [3]; vs unsupplemented control): 620 kg
Iron mono-glycinate	1000	1000				450	350		100		
Manganese mono-glycinate	1000	1000				300	300		100		
zinc ammonium maleinate											Daily weight gain (E. coli; 38 days): 391 g; Feed utilization (E. coli; 38 days): 2.04 kg/kg; Body weight at the end of the experiment (E. coli; 38 days, initial weight 9.19 kg): 24.05 kg; Average daily weight gain higher than control group (E. coli; [6]): 45%; Feed utilization better than control group (E. coli; [6]): 13%
[NH3+][Cu]1([NH3+])[O]C(=O)CN(CC(=O)O)CCN(CC(=O)O)CC(=O)[O]1 [Cu diamino ethylenediamine tetraacetic acid]				20				80			Egg yield increase compared to the negative control group (Clostridium perfringens [4]): 6.7%; Egg yield increase compared to the positive control group (Clostridium perfringens [4]): 22.4%; Total eggs (Clostridium perfringens [4]; 36 hens, C. perfringens inoculated): 1868 pc.; No. of eggs/hen (Clostridium perfringens [4]; C. perfringens inoculated): 51.80; Total egg weight (Clostridium perfringens [4]; C. perfringens inoculated): 125.70 kg; Weight of egg (Clostridium perfringens [4]; g/pc.): 67.2 g
NCC(=O)[O-].NCC(=O)[O-].O.[Cu+2] [Copper (H2O) bis-glycinate]	800	800	171	100	5.3	400	300	96	60	32	

Reference: patent publication US10821093B2, “Antibacterial microelement chelates and the use thereof in animal feeds” (priority 2012, dated 2020)
